US8153104B2, “Pharmaceutical formulations for dry powder inhalers comprising a low-dosage strength active ingredient” (Chiesi Farmaceutici S.p.A., priority 2005, dated 2012)
Where a name gives a salt, the structure may show the parent alone.

Test: Particle size of microparticles by laser diffraction analysis
Type: physicochemical
Conditions: starting material of Example 2
Experimental: The particle size of the obtained microparticles was determined by laser diffraction analysis. The parameters taken into consideration were: i) the VD in micron of 10%, 50%, and 90% of the particles expressed as d(v, 0.1), d(v, 0.5) and d(v, 0.9), respectively, which correspond to the mass diameter assuming a size independent density for the particles. ii) the polydispersity of the powder, i.e. the width of the particle size distribution which is expressed by the span (span=[d(v, 0.9)−d(v, 0.1)]/d (v, 0.5)—according to Chew N Y et al J Pharm Pharmaceut Sci 2002, 5, 162-168).
The agglomerates were isolated by sieving and their particle size distribution determined by laser diffraction analysis.
The microparticles were characterised in terms of particle size (laser diffraction analysis) and uniformity of distribution of the active ingredient.

Structure (SMILES): COc1ccc(C[C@@H](C)NC[C@H](O)c2ccc(O)c3[nH]c(=O)ccc23)cc1 [CHF 4226 hydrochloride, 8-hydroxy-5-[(1R)-1-hydroxy-2-[[(1R)-2-(4-methoxyphenyl)-1-methylethyl]amino]ethyl-2(1H)-quinolinone hydrochloride]
- MMD of micronised active ingredient: 1.8 micron
